The results in this text go back to patent US8822485B2, “Amino heteroaryl compounds as beta-secretase modulators and methods of use” (Amgen Inc., priority 2010, dated 2014).

A value given as a limit tells only on which side of the number the result lay.

In test [1] the test system is Aβ40 in conditioned medium of cells stably expressing Amyloid Precursor Protein (APP) (HEK cell). As to the kind of experiment: In vitro BACE cell-based assay (HEK cell assay, Aβ40 sandwich ELISA). Conditions: Homo sapiens, HEK293; IC50 range class; inhibition of Aβ40 after 24 h incubation. As to the method: In Vitro BACE Cell-Based Assay:
The cell-based assay measures inhibition or reduction of Aβ40 □ in conditioned medium of test compound treated cells expressing amyloid precursor protein.
Cells stably expressing Amyloid Precursor Protein (APP) were plated at a density of 40K cells/well in 96 well plates (Costar). The cells were cultivated for 24 hours at 37° C. and 5% CO2 in DMEM supplemented with 10% FBS. The test compounds were then added to cells in 10-point dose response concentrations with the starting concentration being either 100 μM or 10 μM. The compounds were diluted from stock solutions in DMSO and the final DMSO concentration of the test compounds on cells was 0.1%. After 24 h of incubation with the test compounds the supernatant conditioned media was collected and the Aβ 40 levels were determined using a sandwich ELISA. The IC50 of the compound was calculated from the percent of control or percent inhibition of Aβ40 as a function of the concentration of the test compound.
The sandwich ELISA to detect Aβ 40 was performed in 96 well microtiter plates, which were pre-treated with goat anti-rabbit IgG (Pierce). The capture and detecting antibody pair that were used to detect Aβ 40 from cell supernatants were affinity purified pAb40 (Biosource) and biotinylated 6E10 (Signet Labs Inc.), respectively. The optimal concentration for the pAb40 antibody was 3 μg/ml in Superblock/TBS (Pierce) that was supplemented with 0.05% Tween 20 (Sigma). Optimal concentration for the detection antibody 6E10-biotinylated was 0.5 μg/ml in Superblock/TBS (Pierce) that had been supplemented with 2% normal goat serum and 2% normal mouse serum.
Cellular supernatants were incubated with the capture antibody for 3 h at 4° C., followed by 3 wash steps in TBS-tween (0.05%). The detecting antibody incubation was for 2 h at 4° C., again followed by the wash steps as described previously. The final readout of the ELISA is Time-Resolved Fluorescence (counts per minute) using Delfia reagents Streptavidin-Europium and Enhancement solutions (Perkin Elmer) and the Victor 2 multilabel counter (Perkin Elmer).
Of the compounds tested, the cell based assay data for each of Examples 1-33, where available at the time of filing this application, is provided in Table 1.

The next test deals with BACE1 (Homo sapiens, UniProt P56817). In words: In vitro enzymatic BACE FRET assay. The test is classed as biochemical. The following applies: IC50 range class; 0.2 nM enzyme, 50 nM FRET substrate, pH 4.2. As to the method: In Vitro Enzymatic BACE FRET (Fluorescence Resonance Energy Transfer) Assay (Enzyme Assay Data in Table 1)
The assay buffer used in this screen is 0.05 M acetate, pH 4.2, 10% DMSO final, 100 uM genapol (which is a nonionic detergent, below its Critical Micelle Concentration). The Beta Secretase enzyme (0.2 nM) is pre-incubated for one hour with inhibitors, typically in about 1 uL of DMSO according to a serial dilution, are added thereto. The assay is effectively started by the addition of FRET substrate (50 nM) and the combination is incubated for one hour. The FRET assay is terminated with by addition of Tris buffer, which raises the pH to neutrality, and the fluorescence is determined. The FRET substrate is a peptide with commercially available fluorophore and quencher, on opposite sides of the BACE cleavage site. Proteolytic cleavage of the FRET substrate releases quenching of fluorescence (excitation […] and […]).
Of the compounds tested, the in-vitro BACE FRET enzyme data for each of Examples 1-33, where available at the time of filing this application, is provided in Table 1.

BACE1, sequence (P56817 46-501, species assumed): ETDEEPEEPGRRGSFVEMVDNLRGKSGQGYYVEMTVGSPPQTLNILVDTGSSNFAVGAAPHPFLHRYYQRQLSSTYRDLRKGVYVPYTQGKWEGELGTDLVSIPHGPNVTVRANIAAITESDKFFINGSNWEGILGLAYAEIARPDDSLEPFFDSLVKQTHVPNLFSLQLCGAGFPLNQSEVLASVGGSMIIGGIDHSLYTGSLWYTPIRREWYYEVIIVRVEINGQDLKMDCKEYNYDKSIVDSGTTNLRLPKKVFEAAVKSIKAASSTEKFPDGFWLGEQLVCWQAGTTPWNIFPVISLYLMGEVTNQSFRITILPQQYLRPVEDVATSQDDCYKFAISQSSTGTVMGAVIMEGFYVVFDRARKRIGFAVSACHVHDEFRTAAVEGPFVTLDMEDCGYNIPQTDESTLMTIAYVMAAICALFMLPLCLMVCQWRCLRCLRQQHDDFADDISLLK

On to `Cc1cccc(C(=O)N2CCCC2C)c1-c1ccc2nc(N)c(CCc3cncnc3)cc2c1` (racemic) [Example 32, (±)-(2-(2-amino-3-(2-(pyrimidin-5-yl)ethyl)quinolin-6-yl)-3-methylphenyl)(2-methylpyrrolidin-1-yl)methanone], for which the IC50 is < 500 nM in test [1] and < 100 nM on BACE1.

For `Cc1ccccc1-c1ccc2nc(N)c(C3OCCCC3c3cc(CC(C)(C)C)ncn3)cc2c1` (single isomer, unassigned) [Example 7], the concentration for half-maximal inhibition (IC50) in test [1] was 1000 to 5000 nM; at BACE1 it was < 100 nM.

As for `Cc1ccccc1-c1ccc2nc(N)c(C3CCCC3c3cc(C4CCCC4)ncn3)cc2c1` (stereo not drawn) [Example 1, 3-(2-(6-cyclopentylpyrimidin-4-yl)cyclopentyl)-6-o-tolylquinolin-2-amine], the IC50 in test [1] is > 5000 nM; on BACE1, < 100 nM.

Turning to `Cc1ccccc1-c1ccc2nc(N)c(C=Cc3cncc(C4=CCCCC4)c3)cc2c1` [Example 2, 3-(2-(5-cyclohexenylpyridin-3-yl)vinyl)-6-o-tolylquinolin-2-amine], the IC50 in test [1] is > 5000 nM; on BACE1 it was 100 to 1000 nM.

As for `Cc1ccccc1-c1ccc2nc(N)c(CCc3cncc(C4CCCCC4)c3)cc2c1` [Example 3, 3-(2-(5-cyclohexylpyridin-3-yl)ethyl)-6-o-tolylquinolin-2-amine], the half-maximal inhibitory concentration (IC50) in test [1] was > 5000 nM; at BACE1, < 100 nM.

Regarding `CCc1cncc(CCc2cc3cc(-c4ccccc4C)ccc3nc2N)c1` [Example 5, 3-(2-(5-ethylpyridin-3-yl)ethyl)-6-o-tolylquinolin-2-amine], the IC50 (in test [1]; on BACE1) was 1000 to 5000 nM each time.

In the case of `Cc1cccnc1-c1ccc2nc(N)c(CCc3cc(CC(C)(C)C)ncn3)cc2c1` [Example 6, 6-(3-methylpyridin-2-yl)-3-(2-(6-neopentylpyrimidin-4-yl)ethyl)quinolin-2-amine], the half-maximal inhibitory concentration (IC50) lay in the range of 1000 to 5000 nM in test [1] and 100 to 1000 nM at BACE1.

`Cc1ccccc1-c1ccc2nc(N)c(CCc3cc(C(C)(C)C)ncn3)cc2c1` [Example 8, 3-(2-(6-tert-butylpyrimidin-4-yl)ethyl)-6-o-tolylquinolin-2-amine]: the IC50 in test [1] is 1000 to 5000 nM; at BACE1, < 100 nM.

Turning to `Cc1ccccc1-c1ccc2nc(N)c(CC(C)c3cc(CC(C)(C)C)ncn3)cc2c1` (stereo not drawn) [Example 9, 3-(2-(6-neopentylpyrimidin-4-yl)propyl)-6-o-tolylquinolin-2-amine], the IC50 is 500 to 1000 nM in test [1] and < 100 nM at BACE1.

As to `CCc1cc(C(C)Cc2cc3cc(-c4ccccc4C)ccc3nc2N)ncn1` (stereo not drawn) [Example 10, 3-(2-(6-ethylpyrimidin-4-yl)propyl)-6-o-tolylquinolin-2-amine], the figures for the IC50 (in test [1]; on BACE1) were 1000 to 5000 nM and 100 to 1000 nM, respectively.

As to `Cc1ccccc1-c1ccc2nc(N)c(COc3cc(C(F)(F)F)ncn3)cc2c1` [Example 11, 6-o-tolyl-3-((6-(trifluoromethyl)pyrimidin-4-yloxy)methyl)quinolin-2-amine], the IC50 is > 5000 nM in test [1] and 100 to 1000 nM at BACE1.

Consider `Cc1ccccc1-c1ccc2nc(N)c(CC(C)c3cc(C4CCCC4)ncn3)cc2c1` (stereo not drawn) [Example 13, 3-(2-(6-cyclopentylpyrimidin-4-yl)propyl)-6-o-tolylquinolin-2-amine], for which the results for the IC50 (in test [1]; on BACE1) were 1000 to 5000 nM and < 100 nM, respectively.

In the case of `CCc1cc(OCc2cc3cc(-c4ccccc4C)ccc3nc2N)ncn1` [Example 14, 6-o-tolyl-3-((6-ethylpyrimidin-4-yloxy)methyl)quinolin-2-amine], the half-maximal inhibitory concentration (IC50) (in test [1]; on BACE1) was > 5000 nM throughout.

Regarding `Cc1cccnc1-c1ccc2nc(N)c(CC(C)c3cc(CC(C)(C)C)ncn3)cc2c1` (stereo not drawn) [Example 15, 6-(3-methylpyridin-2-yl)-3-(2-(6-neopentylpyrimidin-4-yl)propyl)quinolin-2-amine], the half-inhibitory concentration (IC50) in test [1] lay within 500 to 1000 nM; at BACE1, 100 to 1000 nM.

In the case of `Cc1cccnc1-c1ccc2nc(N)c(CCc3cc(C(C)(C)C)ncn3)cc2c1` [Example 16, 3-(2-(6-tert-butylpyrimidin-4-yl)ethyl)-6-(3-methylpyridin-2-yl)quinolin-2-amine], the half-maximal inhibitory concentration (IC50) in test [1] lay in the range of 1000 to 5000 nM; on BACE1, 100 to 1000 nM.

Regarding `Cc1ccccc1-c1ccc2nc(N)c(CCc3cc4ccccc4[nH]3)cc2c1` [Example 17, 3-(2-(1H-indol-2-yl)ethyl)-6-o-tolylquinolin-2-amine], the concentration for half-maximal inhibition (IC50) in test [1] was in the range of 500 to 1000 nM; on BACE1, 1000 to 5000 nM.

For the compound `Cc1ccccc1-c1ccc2nc(N)c(CCc3cncc(CC(C)C)c3)cc2c1` [Example 18, 3-(2-(5-isobutylpyridin-3-yl)ethyl)-6-o-tolylquinolin-2-amine], the results for the IC50 (in test [1]; on BACE1) were 1000 to 5000 nM and 100 to 1000 nM, respectively.

For `Cc1ccccc1-c1ccc2nc(N)c(CCc3cnn(Cc4ccccc4)c3)cc2c1` [Example 19, 3-(2-(1-benzyl-1H-pyrazol-4-yl)ethyl)-6-o-tolylquinolin-2-amine], the half-maximal inhibitory concentration (IC50) is 1000 to 5000 nM in test [1] and 100 to 1000 nM on BACE1.

In the case of `Cc1cccnc1-c1ccc2nc(N)c(CCc3cc(C4CCOCC4)ncn3)cc2c1` [Example 20, 6-(3-methylpyridin-2-yl)-3-(2-(6-(tetrahydro-2H-pyran-4-yl)pyrimidin-4-yl)ethyl)quinolin-2-amine], the half-maximal inhibitory concentration (IC50) is 1000 to 5000 nM in test [1] and 100 to 1000 nM on BACE1.

`Cc1ccccc1-c1ccc2nc(N)c(CCc3cncc(CC(C)(C)C)c3)cc2c1` [Example 21, 3-(2-(5-neopentylpyridin-3-yl)ethyl)-6-o-tolylquinolin-2-amine]: the IC50 in test [1] is > 5000 nM; on BACE1, 100 to 1000 nM.

Regarding `Cc1ccccc1-c1ccc2nc(N)c(CCc3cncc(CCC(C)(C)C)c3)cc2c1` [Example 22, 3-(2-(5-(3,3-dimethylbutyl)pyridin-3-yl)ethyl)-6-o-tolylquinolin-2-amine], the IC50 is > 5000 nM in test [1] and 100 to 1000 nM at BACE1.

In the case of `Cc1ccccc1-c1ccc2nc(N)c(CCc3cccc(C(F)(F)F)c3)cc2c1` [Example 23, 6-o-tolyl-3-(3-(trifluoromethyl)phenethyl)quinolin-2-amine], the figures for the IC50 (in test [1]; at BACE1) were > 5000 nM and 1000 to 5000 nM, respectively.

Consider `Cc1ccccc1-c1ccc2nc(N)c(C=Cc3cnn(C4CCCCC4)c3)cc2c1` [Example 24, 3-(2-(1-cyclohexyl-1H-pyrazol-4-yl)vinyl)-6-o-tolylquinolin-2-amine], for which the IC50 was > 5000 nM in test [1] and 1000 to 5000 nM at BACE1.

Take `Cc1ccccc1-c1ccc2nc(N)c(CCc3cnn(C4CCCCC4)c3)cc2c1` [Example 25, 3-(2-(1-cyclohexyl-1H-pyrazol-4-yl)ethyl)-6-o-tolylquinolin-2-amine]: the concentration for half-maximal inhibition (IC50) in test [1] is 1000 to 5000 nM; on BACE1 it was < 100 nM.

Regarding `Cc1ccccc1-c1ccc2nc(N)c(CC(C)c3cncc(C4CCCCO4)c3)cc2c1` (stereo not drawn) [Example 26, 3-(2-(5-(tetrahydro-2H-pyran-2-yl)pyridin-3-yl)propyl)-6-o-tolylquinolin-2-amine], the results for the concentration for half-maximal inhibition (IC50) (in test [1]; on BACE1) were 1000 to 5000 nM and 100 to 1000 nM, respectively.

As for `Cc1ccccc1-c1ccc2nc(N)c(CC(C)c3cncc(C4CCCCC4)c3)cc2c1` (stereo not drawn) [Example 27, 3-(2-(5-cyclohexylpyridin-3-yl)propyl)-6-o-tolylquinolin-2-amine], the half-inhibitory concentration (IC50) was > 5000 nM in test [1] and < 100 nM on BACE1.

Regarding `Cc1ccccc1-c1ccc2nc(N)c(CCc3cnco3)cc2c1` [Example 28, 3-(2-(oxazol-5-yl)ethyl)-6-o-tolylquinolin-2-amine], the IC50 is > 5000 nM in test [1] and 1000 to 5000 nM at BACE1.

In general, IC50 refers to the midpoint of a concentration-inhibition curve.
